In patent publication US8618111B2, “5-alkynyl-pyrimidines” (Boehringer Ingelheim International GmbH, priority 2010, dated 2013):

Key:
mTOR = mTOR (Homo sapiens (Human), UniProt P42345); test: mTOR kinase activity assay (phosphorylation status of mTOR substrate 4E-BP1; TR-FRET); format: biochemical; details: GFP-4E-BP1 substrate, 8 μM ATP
PI3Kalpha = PI3Kalpha (Homo sapiens (Human), UniProt P42336); test: Inhibition of PI3Kalpha-induced PIP-2 phosphorylation (filter-binding assay); format: biochemical; details: 33P-ATP
Experimental: Inhibition of PI3Kalpha-Induced PIP-2 Phosphorylation
Method Type: Filter-Binding-Assay
Aliquoted in desired amounts and stored at −80° C. Final assay concentration 25 ng/well.

BT474 = BT474 cell assay (EC50); format: cell-based; details: Homo sapiens, BT-474; BT474 cells
[1] = system: U87MG human glioblastoma cell line; test: CyQuant assay in U87MG cells; format: cell-based; details: U-87 MG, 72 h, 3 days incubation
Experimental: CyQuant Assay in U87MG Cells
3. […] Evaluation • Calculate EC50 using GraphPad Prism (Fifty)

Chain of PI3Kalpha (P42336 whole entry, species assumed): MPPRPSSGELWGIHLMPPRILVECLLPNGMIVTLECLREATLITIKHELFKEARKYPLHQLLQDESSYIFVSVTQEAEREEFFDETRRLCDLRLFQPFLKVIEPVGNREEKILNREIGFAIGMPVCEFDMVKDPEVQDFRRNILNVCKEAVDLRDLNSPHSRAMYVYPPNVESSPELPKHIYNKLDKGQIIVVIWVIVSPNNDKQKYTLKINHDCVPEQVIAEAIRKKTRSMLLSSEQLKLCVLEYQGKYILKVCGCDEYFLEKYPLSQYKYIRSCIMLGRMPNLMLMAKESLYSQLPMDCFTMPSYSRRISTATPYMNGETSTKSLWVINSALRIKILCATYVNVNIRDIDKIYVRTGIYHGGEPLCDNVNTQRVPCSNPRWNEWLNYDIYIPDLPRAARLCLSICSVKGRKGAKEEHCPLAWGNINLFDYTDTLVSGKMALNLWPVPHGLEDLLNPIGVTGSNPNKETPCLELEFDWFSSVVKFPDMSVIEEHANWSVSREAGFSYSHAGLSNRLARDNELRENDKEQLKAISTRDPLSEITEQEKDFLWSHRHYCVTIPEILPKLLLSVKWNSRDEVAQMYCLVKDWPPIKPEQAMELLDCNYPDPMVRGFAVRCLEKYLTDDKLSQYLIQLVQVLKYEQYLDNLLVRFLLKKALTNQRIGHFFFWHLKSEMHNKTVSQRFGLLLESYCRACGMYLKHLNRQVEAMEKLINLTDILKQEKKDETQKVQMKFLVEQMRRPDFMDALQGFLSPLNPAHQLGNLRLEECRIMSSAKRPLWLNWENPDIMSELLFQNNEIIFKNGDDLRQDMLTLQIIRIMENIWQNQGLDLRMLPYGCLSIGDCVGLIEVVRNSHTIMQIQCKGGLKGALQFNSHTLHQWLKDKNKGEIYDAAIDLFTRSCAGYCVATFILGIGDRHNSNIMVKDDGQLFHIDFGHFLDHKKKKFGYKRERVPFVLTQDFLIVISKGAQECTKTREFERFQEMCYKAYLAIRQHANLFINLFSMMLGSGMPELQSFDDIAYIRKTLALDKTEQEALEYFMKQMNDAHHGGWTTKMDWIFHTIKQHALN
Chain of PI3Kalpha (P27986 whole entry partner, species assumed): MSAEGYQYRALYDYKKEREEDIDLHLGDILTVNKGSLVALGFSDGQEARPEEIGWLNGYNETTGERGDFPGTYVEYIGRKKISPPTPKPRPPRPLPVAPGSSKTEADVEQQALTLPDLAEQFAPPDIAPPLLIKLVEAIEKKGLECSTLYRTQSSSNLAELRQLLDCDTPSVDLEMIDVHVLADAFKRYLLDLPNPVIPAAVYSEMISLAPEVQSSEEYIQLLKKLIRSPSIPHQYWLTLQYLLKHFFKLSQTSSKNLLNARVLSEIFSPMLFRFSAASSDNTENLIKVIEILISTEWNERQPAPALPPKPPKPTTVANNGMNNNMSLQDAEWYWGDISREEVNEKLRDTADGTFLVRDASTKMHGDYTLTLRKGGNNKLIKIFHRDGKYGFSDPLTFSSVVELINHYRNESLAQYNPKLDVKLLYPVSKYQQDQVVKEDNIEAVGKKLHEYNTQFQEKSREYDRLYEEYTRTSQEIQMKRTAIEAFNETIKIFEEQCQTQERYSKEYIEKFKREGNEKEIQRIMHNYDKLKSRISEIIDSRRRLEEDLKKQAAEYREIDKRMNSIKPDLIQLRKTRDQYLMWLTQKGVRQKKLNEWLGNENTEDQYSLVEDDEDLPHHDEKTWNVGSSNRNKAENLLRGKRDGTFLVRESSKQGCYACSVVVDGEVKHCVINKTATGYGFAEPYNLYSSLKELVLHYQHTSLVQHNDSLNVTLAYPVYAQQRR
Chain of mTOR (P42345 1360-2549): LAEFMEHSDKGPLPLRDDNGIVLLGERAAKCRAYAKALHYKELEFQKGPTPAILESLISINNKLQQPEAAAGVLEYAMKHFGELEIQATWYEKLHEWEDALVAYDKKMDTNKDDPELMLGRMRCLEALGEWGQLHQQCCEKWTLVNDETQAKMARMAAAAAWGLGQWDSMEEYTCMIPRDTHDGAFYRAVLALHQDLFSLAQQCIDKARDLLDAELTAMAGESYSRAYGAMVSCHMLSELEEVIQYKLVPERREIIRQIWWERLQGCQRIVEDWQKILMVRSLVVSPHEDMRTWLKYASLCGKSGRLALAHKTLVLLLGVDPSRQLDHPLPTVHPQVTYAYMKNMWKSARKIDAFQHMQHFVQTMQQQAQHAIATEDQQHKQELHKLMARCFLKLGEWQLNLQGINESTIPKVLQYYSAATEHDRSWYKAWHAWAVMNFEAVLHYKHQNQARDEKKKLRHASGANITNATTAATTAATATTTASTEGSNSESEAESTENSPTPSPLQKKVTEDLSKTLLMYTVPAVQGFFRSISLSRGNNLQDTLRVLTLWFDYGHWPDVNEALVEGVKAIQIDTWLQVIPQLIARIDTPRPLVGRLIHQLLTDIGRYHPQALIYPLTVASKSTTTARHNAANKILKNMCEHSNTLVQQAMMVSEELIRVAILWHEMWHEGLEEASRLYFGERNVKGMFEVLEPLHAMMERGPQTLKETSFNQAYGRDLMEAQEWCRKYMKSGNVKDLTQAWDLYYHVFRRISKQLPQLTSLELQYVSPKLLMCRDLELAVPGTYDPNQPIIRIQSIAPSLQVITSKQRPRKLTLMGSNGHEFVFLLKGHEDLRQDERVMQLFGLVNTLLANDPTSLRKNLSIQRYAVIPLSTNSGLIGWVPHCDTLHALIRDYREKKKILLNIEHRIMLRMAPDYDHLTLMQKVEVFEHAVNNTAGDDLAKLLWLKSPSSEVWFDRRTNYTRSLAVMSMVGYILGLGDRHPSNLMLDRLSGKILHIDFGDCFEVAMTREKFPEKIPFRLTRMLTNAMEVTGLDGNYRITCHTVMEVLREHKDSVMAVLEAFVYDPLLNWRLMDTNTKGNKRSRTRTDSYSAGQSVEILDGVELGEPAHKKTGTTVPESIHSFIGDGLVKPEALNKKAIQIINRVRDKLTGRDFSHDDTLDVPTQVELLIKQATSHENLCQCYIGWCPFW

| Structure (SMILES) | IC50 (mTOR) | IC50 PI3Ka (PI3Kalpha) | EC50 (BT474) | EC50 [1] |
| --- | --- | --- | --- | --- |
| CCc1ncnc(N2CCN(C(C)C)CC2)c1C#Cc1ccc(N)nc1 [Example H-6] | 0.015 µM | 0.055 µM | 0.072 µM | – |
| CCc1ncnc(N2CCN(CC(C)O)CC2)c1C#Cc1ccc(N)nc1 (stereo not drawn) [Example H-20] | 0.051 µM | 0.152 µM | 0.138 µM | – |
| CCc1ncnc(N2CCN(c3ccccn3)CC2)c1C#Cc1ccc(N)nc1 [Example H-21] | 0.033 µM | 0.042 µM | 0.068 µM | – |
| CCc1ncnc(N2CCN(C)C(=O)C2)c1C#Cc1ccc(N)nc1 [Example H-13] | 0.037 µM | 0.072 µM | 0.076 µM | – |
| CCc1ncnc(N2CCN(c3ccccc3)CC2)c1C#Cc1ccc(N)nc1 [Example H-24] | 0.089 µM | 0.129 µM | 0.078 µM | – |
| CCc1ncnc(N2CCc3ncncc3C2)c1C#Cc1ccc(N)nc1 [Example H-11] | 0.027 µM | 0.05 µM | 0.093 µM | – |
| CCc1ncnc(N2CCCCC2)c1C#Cc1ccc(NC)nc1 [Example H-1] | 0.055 µM | 0.214 µM | – | 0.745 µM |
| CCc1ncnc(N2CCN(c3ncccn3)CC2)c1C#Cc1ccc(N)nc1 [Example H-25] | 0.014 µM | 0.048 µM | 0.015 µM | – |
| CCc1ncnc(N2CCC3(CC2)COC3)c1C#Cc1ccc(N)nc1 [Example H-7] | 0.138 µM | 0.097 µM | 0.944 µM | – |
| CCc1ncnc(N2CCN(c3cccnc3)CC2)c1C#Cc1ccc(N)nc1 [Example H-23] | 0.014 µM | 0.048 µM | 0.139 µM | – |
